{"source": "patent US7598046B2", "about": "(priority 2003, dated 2009)", "tested_on": "PrP^Sc (conversion of PrP^C into PrP^Sc)", "format": "biochemical, hamster", "details": "for prion replication in vitro (PMCA signal): 30 min at 4° C., without cyclodextrin, 3200-fold and 12800-fold dilutions of scrapie brain homogenate", "note": "Read-outs that look alike come from different tables or passages of the source.", "data": [{"substance": "Apolipoprotein E", "values": [{"measurement": "prion replication in vitro (PMCA signal)", "setting": "1 and 10 μg hApo E", "value": "increase"}]}, {"substance": "methyl-β-cyclodextrin", "values": [{"measurement": "prion replication (PrP^Sc signal after PMCA): complete inhibition observed or not", "setting": "5 mM methyl-β-cyclodextrin, normal brain homogenate treated 30 min, 10 cycles of PMCA, Western blot after PK", "value": "not"}, {"measurement": "prion replication (PrP^Sc signal after PMCA)", "setting": "10 mM methyl-β-cyclodextrin, normal brain homogenate treated 30 min, 10 cycles of PMCA, Western blot after PK", "value": "complete inhibition"}, {"measurement": "prion replication (PrP^Sc signal after PMCA)", "setting": "20 mM methyl-β-cyclodextrin, normal brain homogenate treated 30 min, 10 cycles of PMCA, Western blot after PK", "value": "complete inhibition"}]}, {"substance": "Apolipoprotein B", "values": [{"measurement": "prion replication in vitro (PMCA signal)", "setting": "8 and 16 μg hApo B", "value": "increase"}]}]}
